In article PMC9030166, “Natural Phaeosphaeride A Derivatives Overcome Drug Resistance of Tumor Cells and Modulate Signaling Pathways” (Pharmaceuticals, 2022):

How the values were obtained:
Type in all cases: cell-based, human
[1] = tested on: HCT-116; experiment: MTT cytotoxicity, HCT-116 colorectal cancer cells; details: 48 h; for IC50: Homo sapiens, HCT-116, adhesive tumor culture
Description: Cell cultures used in the work: adhesive cultures HBL-100 cells (cells of a normal mammary gland epithelium, immortalized by the SV40 virus and acquired tumorigenicity); MCF-7 breast cancer cells; PC-3 prostate adenocarcinoma cells; HCT-116 colorectal cancer cells; non-small cell lung cancer cells A549; human embryonic kidney cells HEK293; suspension cultures (NCI-H929 and RPMI8226 multiple myeloma cells), K562 chronic myeloid leukemia cells; THP-1 acute monocytic leukemia cells; and Jurkat acute T-cell leukemia cells. We also used several primary cultures of soft tissue sarcomas at 3–4passeges, kindly provided by T.I. Fetisov (The Ethics Committee of N.N. Blokhin NMRCO, protocol code 18-28-09095 and date of approval 28 September 2018).
(§1) Modifications of cell lines: K562/i-S9 is a clone obtained after transfection of K562 cells with the ABCB1 (MDR1) gene-encoding P-glycoprotein [36]. Cells HBL-100/Dox and K562/i-S9_Dox are cells obtained by long-term selection with increasing concentrations of doxorubicin (Sigma-Aldrich, St. Louis, MO, USA) from HBL-100 and K562/i-S9 cells, respectively. MCF-7, A594 cells, and primary cultures of soft tissue sarcomas were cultured in DMEM medium (PanEko, Russia), PC-3 and HCT-116 cells and all suspension cultures in RPMI1640 medium (PanEko, Russia) supplemented with 10% fetal bovine serum (GE Healthcare LifeSciences, USA), and gentamicin at a concentration of 40 μg/mL at 37 °C and 5% CO2.
(§2) Cells MCF-7, PC-3, A549, and HCT-116, and primary cultures of STSwere seeded in 96-well plates, 6 × 10^3 cells per well in 90 μL of culture medium. Suspension cultures were seeded at a concentration of 25 × 10^3 cells per well in 135 μL of medium. The test substances were dissolved in DMSO (Applichem, Council Bluffs, IA, USA) until a concentration of 1 × 10^−^2 M was obtained; for the subsequent dilution of the substances, a serum-free culture medium was used. The next day, for adhesive cultures, and on the same day, for suspension cultures, substances were added to the plates in a volume of 10 μL (adhesive cultures) and 15 μL (suspension cultures) per well at various concentrations; each concentration was added in 3–4 repetitions. The cells were cultured in the presence of substances for 48 h. Then, MTT reagent (PanEko, Moscow, Russia) was added to the wells at a concentration of 5 mg/mL in a volume of 20 μL per well. After 1.5–2 h, the medium with the reagent was removed, and the precipitate of the crystals of formazan was dissolved in 60 μL of DMSO. The optical density was determined using a Multiskan FC spectrophotometer (Thermo Scientific, Waltham, MA, USA) at a wavelength of 540 nm.
(§3) Based on the results of the experiments, a schedule was plotted of the dependence of the percentage of surviving cells (from control) on the concentration of the compound, and the sought concentration IC50 was calculated. The experiments were carried out in 3–4 times.

[2] = tested on: K562/i-S9_Dox; experiment: MTT cytotoxicity, resistant K562/i-S9_Dox cells (P-gp overexpression); details: Homo sapiens, K562; resistant version, doxorubicin selected, MTT, 48 h
Description: At the next stage, the cytotoxic activity of compounds 1, 2, and 9 (Scheme 2) was investigated on several pairs of cell lines that differ in the expression of P-gp and the method by which they were obtained. K562/i-S9 cells are the result of the ABCB1 transfection into K562 cells, which increases P-gp expression, but should not seriously affect other signaling pathways that could lead to drug resistance. K562/i-S9_Dox cells were obtained from K562/i-S9 by selection with low concentrations of doxorubicin to increase P-gp expression. Subline HBL-100/Dox is a derivative of HBL-100 cells, obtained by long-term selection with increasing concentrations of doxorubicin, which led not only to an increase in P-gp expression, but also to a change in the signaling pathways in this subline. Cells of the K562/i-S9_Dox subline express the highest level of P-gp: 94.7% ± 2.3 (p < 0.0001 relative to K562, and p = 0.04 relative to K562/i-S9). In cells of the K562/i-S9 line, the expression of P-gp is 80% ± 8.2 (p < 0.0001 relative to K562). At 0.7% ± 0.5, P-gp is practically not expressed in K562 cells (Figure 1).
as §1, §2, §3

[3] = tested on: p70S6K (pThr389/412); experiment: MILLIPLEX MAP 9-Plex, p70S6K active form in A431 lysates; details: A431 cell lysates, 10 μM, 1 h, M ± mx; control 39.9 ± 7.2
Description: (§4) We used the MILLIPLEX MAP Multi-Pathway Magnetic Bead 9-Plex-Cell Signaling Multiplex Assay, which allows the simultaneous detection of nine phosphorylated proteins that are markers of the main intracellular signaling pathways (phosphorylation site is indicated in parentheses), a universal transcription factor that controls the expression of immune response genes; apoptosis and cell cycle NFκB (pS536); cAMP-dependent transcription factor (CREB (pS133); mitogen-activated kinase p38 (pT180/pY182); stress-activated protein kinase JNK (pT183/pY185); ribosomal […]; transcription factors STAT3 (pS727) and STAT5A/B (pY694/699); protein kinase B (Akt) (pS473); and kinase regulated by extracellular signals ERK1/2 (pT185/pY187).
(§5) The effect of various concentrations of PPA derivatives on the cell culture was studied using xCelligence RTCA equipment (AceaBioscience, San Diego, CA, USA). The concentration closest to the IC50 (10 μM) was chosen as the experimental concentration. The selected concentration of phaeosphaeride A derivatives allows for the assessment of the early effect of compounds on cells and compares their effectiveness. In this experiment, the signaling pathways Akt (pSer473), p70S6K (pThr412), NFkB (p65-pSer536), and CREB (pSer133) were not activated (Table 8). The stress-activated signaling pathways ERK/MAP kinase 1/2 (pThr185/pTyr187), JNK (pThr183/pTyr185), and p38 (pThr180/pTyr182) were activated for these compounds.
(§6) We used a MILLIPLEX MAP Multi-Pathway Magnetic Bead 9-Plex-Cell Signaling Multiplex Assay kit (Merck/Millipore), according to the manufacturer’s protocol. A431 cells were cultured in DMEM with 10% FBS in 24-well plates. Compounds were added to the subconfluent cells at a concentration of 10 μM in DMEM medium for 1 h. Each compound was added in 5 experimental repeats. Cell lysates were prepared with lysis buffer (Millipore) with protease inhibitors (Complete, Roche); the protein concentration in the lysates was determined by the Lowry method. In samples equalized in protein concentration, the active forms of kinase cascades were determined using a Bio-Plex 200 fluorescent analyzer (Bio-Rad).

[4] = tested on: STAT5 (pTyr694/699); experiment: MILLIPLEX MAP 9-Plex, STAT5 active form in A431 lysates; details: 10 μM; for STAT5 (pTyr694/699) fluorescence intensity: A431 cell lysates, 1 h, M ± mx, control 44.2 ± 10.2
Description: as §4, §5, §6

SMILES | IC50 [1] | IC50 [2] | p70S6K (pThr389/412) fluorescence intensity [3] | STAT5 (pTyr694/699) fluorescence intensity [4] | activation of transcription factor STAT5A/B (pTyr694/699), in words ([4]; A431 cells) | IC50 value, HCT-116 ([1]; adhesive tumor culture)
C=C1C2=C(C(=O)N1OC)[C@@H](N1CCCC1)[C@@](C)(O)[C@H](CCCCC)O2 [Compound 1] | 7.6 ± 0.9 µM | 3.1 ± 0.8 µM | 51.7 ± 4.8 rel. units | 115.4 ± 28.3 rel. units | – | –
C=C1C2=C(C(=O)N1OC)[C@@H](N(C)C)[C@@](C)(O)[C@H](CCCCC)O2 [Compound 2, (2S,3R,4R)-4-(dimethylamino)-3-hydroxy-6-methoxy-3-methyl-7-methylene-2-pentyl-3,4,6,7-tetrahydropyrano[2,3-c]pyrrol-5(2H)-one] | 4.2 ± 0.2 µM | 2.4 ± 0.9 µM | 56.9 ± 9.9 rel. units | 179.2 ± 12.6 *↑ rel. units | slightly activated | –
C=C1C2=C(C(=O)N1OC)[C@@H](N(CCCC)CCCC)[C@@](C)(O)[C@H](CCCCC)O2 [Compound 5, (2S,3R,4R)-4-(dibutylamino)-3-hydroxy-6-methoxy-3-methyl-7-methylene-2-pentyl-3,4,6,7-tetrahydropyrano[2,3-c]pyrrol-5(2H)-one] | 12 ± 0.9 µM | – | 70.6 ± 9.2 *↑ rel. units | 75.7 ± 2.7 *↑ rel. units | – | –
C=C1C2=C(C(=O)N1OC)[C@@H](N(CC)CCO)[C@@](C)(O)[C@H](CCCCC)O2 [Compound 9, (2S,3R,4R)-4-[ethyl(2-hydroxyethyl)amino]-3-hydroxy-6-methoxy-3-methyl-7-methylene-2-pentyl-3,4,6,7-tetrahydropyrano[2,3-c]pyrrol-5(2H)-one] | 3.9 ± 0.1 µM | 3.3 ± 0.6 µM | 38.8 ± 7.4 rel. units | 69.6 ± 15.6 rel. units | – | –
CCCCC[C@@H]1OC2=C(C(=O)N(OC)/C2=C\n2cnnc2)C(n2cnnc2)[C@@]1(C)O (stereo partly shown) [Compound 10] | – | – | 53.4 ± 4.0 rel. units | 115.2 ± 16.9 *↑ rel. units | – | not active
